Assays:
[1] = target: Voltage-dependent N-type calcium channel subunit alpha-1B (Rattus norvegicus) (UniProt Q02294); assay: CA+/N/RA Eurofins-Panlabs selectivity data (BI); conditions: Compound concentration 10.0 uM
[2] = target: Voltage-dependent L-type calcium channel subunit alpha-1C (phenylalkylamine site) (Rattus norvegicus, UniProt P22002); assay: CA+/PAASITE Eurofins-Panlabs selectivity data (BI); conditions: compound concentration 10 uM, read-out: % Ctrl
[3] = target: Endothelin-converting enzyme 1 (Homo sapiens) (UniProt P42892); assay: ECE-1 (HU) Eurofins-Panlabs selectivity data (BI); conditions: Compound concentration 10.0 uM
[4] = target: Neprilysin (Homo sapiens) (UniProt P08473); assay: NEUTRALENDOP Eurofins-Panlabs selectivity data (BI); conditions: Compound concentration 10.0 uM
[5] = target: Renin (Homo sapiens) (UniProt P00797); assay: RENIN (HU) Eurofins-Panlabs selectivity data (BI); conditions: Compound concentration 10.0 uM
[6] = target: T1, Thromboxane-A synthase (Homo sapiens) (UniProt P24557); assay: THRO SYN(HU) Eurofins-Panlabs selectivity data (BI)
T1 sequence (whole entry): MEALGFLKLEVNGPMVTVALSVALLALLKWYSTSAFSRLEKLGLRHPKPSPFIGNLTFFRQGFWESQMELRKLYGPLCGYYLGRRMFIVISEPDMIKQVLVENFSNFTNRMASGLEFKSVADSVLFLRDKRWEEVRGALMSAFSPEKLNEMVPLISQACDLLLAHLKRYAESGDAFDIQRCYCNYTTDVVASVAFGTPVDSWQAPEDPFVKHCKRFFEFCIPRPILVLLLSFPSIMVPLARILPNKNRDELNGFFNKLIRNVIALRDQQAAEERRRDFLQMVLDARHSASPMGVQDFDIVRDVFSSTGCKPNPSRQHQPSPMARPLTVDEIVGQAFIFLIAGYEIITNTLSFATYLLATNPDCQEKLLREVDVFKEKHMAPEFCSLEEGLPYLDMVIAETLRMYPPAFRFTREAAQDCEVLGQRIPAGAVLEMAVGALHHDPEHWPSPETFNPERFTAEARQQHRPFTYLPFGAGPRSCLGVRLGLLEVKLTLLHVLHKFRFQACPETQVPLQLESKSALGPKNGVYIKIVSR

[7] = target: Tyrosine-protein kinase ABL2 (Homo sapiens) (UniProt P42684); conditions: Compound concentration 1000.0 nM
[8] = target: 5'-AMP-activated protein kinase catalytic subunit alpha-2 (Homo sapiens) (UniProt P54646); conditions: Compound concentration 1000.0 nM
[9] = target: Serine/threonine-protein kinase BRSK1 (Homo sapiens) (UniProt Q8TDC3); conditions: Compound concentration 1000.0 nM
[10] = target: Calcium/calmodulin-dependent protein kinase type II subunit beta (Homo sapiens) (UniProt Q13554); conditions: Compound concentration 1000.0 nM
[11] = target: Cyclin-dependent kinase-like 5 (Homo sapiens) (UniProt O76039); conditions: Compound concentration 1000.0 nM
[12] = target: Dual specificity protein kinase CLK3 (Homo sapiens) (UniProt P49761); conditions: Compound concentration 1000.0 nM
[13] = target: Dual specificity tyrosine-phosphorylation-regulated kinase 2 (Homo sapiens) (UniProt Q92630); conditions: Compound concentration 1000.0 nM
[14] = system: Epidermal growth factor receptor (Homo sapiens), P00533 [L861Q]; conditions: Compound concentration 1000.0 nM
[15] = target: Ephrin type-A receptor 1 (Homo sapiens) (UniProt P21709); conditions: Compound concentration 1000.0 nM
[16] = target: Ephrin type-B receptor 3 (Homo sapiens) (UniProt P54753); conditions: Compound concentration 1000.0 nM
[17] = target: Receptor tyrosine-protein kinase erbB-4 (Homo sapiens) (UniProt Q15303); conditions: Compound concentration 1000.0 nM
[18] = system: Receptor-type tyrosine-protein kinase FLT3 (Homo sapiens), P36888 [D835V]; conditions: Compound concentration 1000.0 nM
[19] = target: G protein-coupled receptor kinase 4 (Homo sapiens) (UniProt P32298); conditions: Compound concentration 1000.0 nM
[20] = target: Interleukin-1 receptor-associated kinase 1 (Homo sapiens) (UniProt P51617); conditions: Compound concentration 1000.0 nM
[21] = target: Microtubule-associated serine/threonine-protein kinase 1 (Homo sapiens) (UniProt Q9Y2H9); conditions: Compound concentration 1000.0 nM
[22] = target: Dual specificity mitogen-activated protein kinase kinase 4 (Homo sapiens) (UniProt P45985); conditions: Compound concentration 1000.0 nM
[23] = target: Serine/threonine-protein kinase MRCK alpha (Homo sapiens) (UniProt Q5VT25); conditions: Compound concentration 1000.0 nM
[24] = target: Macrophage-stimulating protein receptor (Homo sapiens) (UniProt Q04912); conditions: Compound concentration 1000.0 nM
[25] = target: Serine/threonine-protein kinase 3 (Homo sapiens) (UniProt Q13188); conditions: Compound concentration 1000.0 nM
[26] = target: Serine/threonine-protein kinase PAK 2 (Homo sapiens) (UniProt Q13177); conditions: Compound concentration 1000.0 nM
[27] = system: Phosphatidylinositol 4,5-bisphosphate 3-kinase catalytic subunit alpha isoform (Homo sapiens), P42336 [E545K]; conditions: Compound concentration 1000.0 nM
[28] = target: 1-phosphatidylinositol 3-phosphate 5-kinase (Homo sapiens) (UniProt Q9Y2I7); conditions: Compound concentration 1000.0 nM
[29] = target: Serine/threonine-protein kinase 36 (Homo sapiens) (UniProt Q9NRP7); conditions: Compound concentration 1000.0 nM
[30] = target: Non-receptor tyrosine-protein kinase TNK1 (Homo sapiens) (UniProt Q13470); conditions: Compound concentration 1000.0 nM
[31] = target: Activated CDC42 kinase 1 (Homo sapiens) (UniProt Q07912); conditions: Compound concentration 1000.0 nM
[32] = target: Non-receptor tyrosine-protein kinase TYK2 (Homo sapiens) (UniProt P29597); conditions: Compound concentration 1000.0 nM
[33] = target: Kappa-type opioid receptor (Homo sapiens) (UniProt P41145); conditions: Compound concentration 10.0 uM
[34] = target: Histamine H3 receptor (Homo sapiens) (UniProt Q9Y5N1); conditions: Compound concentration 10.0 uM
[35] = target: Beta-2 adrenergic receptor (Homo sapiens) (UniProt P07550); conditions: Compound concentration 10.0 uM
[36] = organism: Rattus norvegicus; conditions: Compound concentration 10.0 uM

Chain of Histamine H3 receptor (Homo sapiens) (Q9Y5N1 whole entry): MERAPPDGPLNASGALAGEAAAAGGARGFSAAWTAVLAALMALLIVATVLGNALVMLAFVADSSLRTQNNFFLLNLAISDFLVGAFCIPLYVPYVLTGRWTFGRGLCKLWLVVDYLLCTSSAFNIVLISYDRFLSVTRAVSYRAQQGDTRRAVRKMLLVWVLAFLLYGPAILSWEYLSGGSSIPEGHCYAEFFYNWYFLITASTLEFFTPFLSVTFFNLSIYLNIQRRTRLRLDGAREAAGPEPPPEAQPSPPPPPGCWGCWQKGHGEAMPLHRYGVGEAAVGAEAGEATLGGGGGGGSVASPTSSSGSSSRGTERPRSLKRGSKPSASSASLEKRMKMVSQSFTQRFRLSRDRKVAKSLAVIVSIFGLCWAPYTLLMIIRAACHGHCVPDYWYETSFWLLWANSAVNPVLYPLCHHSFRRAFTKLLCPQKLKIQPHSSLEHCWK
Chain of Phosphatidylinositol 4,5-bisphosphate 3-kinase catalytic subunit alpha isoform (Homo sapiens), P42336 [E545K] (P42336 whole entry E545K, canonical isoform): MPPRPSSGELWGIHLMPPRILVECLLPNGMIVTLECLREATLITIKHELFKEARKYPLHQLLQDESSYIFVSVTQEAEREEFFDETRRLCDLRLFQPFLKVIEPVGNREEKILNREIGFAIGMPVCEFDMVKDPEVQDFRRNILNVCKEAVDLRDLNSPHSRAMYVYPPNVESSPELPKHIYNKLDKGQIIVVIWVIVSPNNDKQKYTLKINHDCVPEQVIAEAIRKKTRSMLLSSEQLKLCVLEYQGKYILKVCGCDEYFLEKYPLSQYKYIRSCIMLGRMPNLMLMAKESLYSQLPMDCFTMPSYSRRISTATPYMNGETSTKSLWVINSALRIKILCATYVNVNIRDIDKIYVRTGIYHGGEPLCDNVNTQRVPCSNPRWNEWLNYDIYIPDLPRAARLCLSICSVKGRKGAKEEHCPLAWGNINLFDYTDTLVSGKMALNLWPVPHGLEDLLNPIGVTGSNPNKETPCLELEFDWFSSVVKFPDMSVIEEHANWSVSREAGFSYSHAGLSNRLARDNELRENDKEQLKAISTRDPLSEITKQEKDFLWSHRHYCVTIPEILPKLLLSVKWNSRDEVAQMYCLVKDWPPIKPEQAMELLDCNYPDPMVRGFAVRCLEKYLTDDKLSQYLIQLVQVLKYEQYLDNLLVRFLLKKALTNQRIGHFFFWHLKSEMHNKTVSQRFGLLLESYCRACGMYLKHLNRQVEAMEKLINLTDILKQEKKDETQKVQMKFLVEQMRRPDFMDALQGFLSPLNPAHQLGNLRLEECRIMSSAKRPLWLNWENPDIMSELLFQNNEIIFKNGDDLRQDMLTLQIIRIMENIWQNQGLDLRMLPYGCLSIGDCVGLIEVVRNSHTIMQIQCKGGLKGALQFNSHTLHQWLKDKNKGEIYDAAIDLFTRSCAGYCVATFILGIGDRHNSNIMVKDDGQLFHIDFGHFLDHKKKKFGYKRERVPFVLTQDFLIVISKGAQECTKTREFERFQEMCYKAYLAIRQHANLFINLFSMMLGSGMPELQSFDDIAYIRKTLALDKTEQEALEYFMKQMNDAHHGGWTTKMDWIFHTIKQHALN
Chain of G protein-coupled receptor kinase 4 (Homo sapiens) (P32298 whole entry, looked up): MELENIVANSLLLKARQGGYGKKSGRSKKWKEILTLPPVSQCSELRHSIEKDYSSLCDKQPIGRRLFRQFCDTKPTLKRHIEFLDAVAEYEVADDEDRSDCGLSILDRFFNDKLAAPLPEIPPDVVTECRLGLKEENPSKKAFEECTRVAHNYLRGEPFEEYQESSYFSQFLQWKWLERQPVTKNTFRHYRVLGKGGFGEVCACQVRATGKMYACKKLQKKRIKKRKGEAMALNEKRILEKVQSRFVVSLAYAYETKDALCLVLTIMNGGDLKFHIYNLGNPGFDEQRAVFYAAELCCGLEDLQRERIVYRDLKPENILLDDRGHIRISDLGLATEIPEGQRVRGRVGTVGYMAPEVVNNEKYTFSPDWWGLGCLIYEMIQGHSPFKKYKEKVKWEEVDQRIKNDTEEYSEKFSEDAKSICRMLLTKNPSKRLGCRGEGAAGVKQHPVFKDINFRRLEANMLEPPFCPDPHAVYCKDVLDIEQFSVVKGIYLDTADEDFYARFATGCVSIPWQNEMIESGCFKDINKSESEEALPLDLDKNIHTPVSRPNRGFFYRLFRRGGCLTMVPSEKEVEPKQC
Chain of Non-receptor tyrosine-protein kinase TYK2 (Homo sapiens) (P29597 whole entry): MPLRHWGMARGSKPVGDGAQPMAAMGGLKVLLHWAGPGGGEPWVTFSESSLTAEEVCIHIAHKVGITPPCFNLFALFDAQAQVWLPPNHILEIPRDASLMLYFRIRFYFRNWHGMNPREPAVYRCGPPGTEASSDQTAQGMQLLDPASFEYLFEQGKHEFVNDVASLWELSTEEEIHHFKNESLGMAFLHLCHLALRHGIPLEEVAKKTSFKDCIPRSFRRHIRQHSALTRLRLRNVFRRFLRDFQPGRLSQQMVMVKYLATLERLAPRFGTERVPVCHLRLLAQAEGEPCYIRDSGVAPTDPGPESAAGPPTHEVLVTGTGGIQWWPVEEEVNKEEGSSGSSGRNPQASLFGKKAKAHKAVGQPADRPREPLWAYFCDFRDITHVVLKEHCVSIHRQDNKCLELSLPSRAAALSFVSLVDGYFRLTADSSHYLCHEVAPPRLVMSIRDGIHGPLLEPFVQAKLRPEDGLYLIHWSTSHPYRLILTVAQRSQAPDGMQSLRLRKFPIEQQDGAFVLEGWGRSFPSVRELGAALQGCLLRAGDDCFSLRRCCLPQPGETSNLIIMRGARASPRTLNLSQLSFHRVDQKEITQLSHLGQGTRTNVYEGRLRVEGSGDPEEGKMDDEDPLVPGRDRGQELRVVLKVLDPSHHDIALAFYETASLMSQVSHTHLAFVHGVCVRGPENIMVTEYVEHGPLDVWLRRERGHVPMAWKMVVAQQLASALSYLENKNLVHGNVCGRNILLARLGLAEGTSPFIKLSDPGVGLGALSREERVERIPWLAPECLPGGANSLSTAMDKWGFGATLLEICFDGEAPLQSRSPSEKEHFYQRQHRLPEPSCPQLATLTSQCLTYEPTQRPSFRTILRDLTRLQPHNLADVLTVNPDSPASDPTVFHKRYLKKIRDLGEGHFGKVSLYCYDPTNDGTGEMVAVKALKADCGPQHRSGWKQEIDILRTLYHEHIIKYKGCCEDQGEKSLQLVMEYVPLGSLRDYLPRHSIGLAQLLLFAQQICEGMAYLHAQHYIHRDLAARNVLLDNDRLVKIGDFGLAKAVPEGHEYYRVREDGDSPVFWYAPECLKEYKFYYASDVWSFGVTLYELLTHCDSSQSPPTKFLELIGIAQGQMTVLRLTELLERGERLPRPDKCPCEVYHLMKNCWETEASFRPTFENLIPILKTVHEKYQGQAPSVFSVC
Chain of Renin (Homo sapiens) (P00797 whole entry): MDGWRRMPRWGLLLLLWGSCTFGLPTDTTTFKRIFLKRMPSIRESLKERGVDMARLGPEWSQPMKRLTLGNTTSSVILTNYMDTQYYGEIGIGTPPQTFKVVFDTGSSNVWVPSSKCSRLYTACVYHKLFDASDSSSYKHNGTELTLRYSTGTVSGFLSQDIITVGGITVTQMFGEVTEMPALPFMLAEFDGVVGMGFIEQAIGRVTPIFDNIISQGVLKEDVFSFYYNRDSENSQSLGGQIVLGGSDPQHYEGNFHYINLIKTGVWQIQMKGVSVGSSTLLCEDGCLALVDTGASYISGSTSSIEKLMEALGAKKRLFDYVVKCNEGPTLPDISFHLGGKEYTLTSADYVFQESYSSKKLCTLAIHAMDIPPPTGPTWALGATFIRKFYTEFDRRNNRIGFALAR
Chain of Serine/threonine-protein kinase 36 (Homo sapiens) (Q9NRP7 whole entry): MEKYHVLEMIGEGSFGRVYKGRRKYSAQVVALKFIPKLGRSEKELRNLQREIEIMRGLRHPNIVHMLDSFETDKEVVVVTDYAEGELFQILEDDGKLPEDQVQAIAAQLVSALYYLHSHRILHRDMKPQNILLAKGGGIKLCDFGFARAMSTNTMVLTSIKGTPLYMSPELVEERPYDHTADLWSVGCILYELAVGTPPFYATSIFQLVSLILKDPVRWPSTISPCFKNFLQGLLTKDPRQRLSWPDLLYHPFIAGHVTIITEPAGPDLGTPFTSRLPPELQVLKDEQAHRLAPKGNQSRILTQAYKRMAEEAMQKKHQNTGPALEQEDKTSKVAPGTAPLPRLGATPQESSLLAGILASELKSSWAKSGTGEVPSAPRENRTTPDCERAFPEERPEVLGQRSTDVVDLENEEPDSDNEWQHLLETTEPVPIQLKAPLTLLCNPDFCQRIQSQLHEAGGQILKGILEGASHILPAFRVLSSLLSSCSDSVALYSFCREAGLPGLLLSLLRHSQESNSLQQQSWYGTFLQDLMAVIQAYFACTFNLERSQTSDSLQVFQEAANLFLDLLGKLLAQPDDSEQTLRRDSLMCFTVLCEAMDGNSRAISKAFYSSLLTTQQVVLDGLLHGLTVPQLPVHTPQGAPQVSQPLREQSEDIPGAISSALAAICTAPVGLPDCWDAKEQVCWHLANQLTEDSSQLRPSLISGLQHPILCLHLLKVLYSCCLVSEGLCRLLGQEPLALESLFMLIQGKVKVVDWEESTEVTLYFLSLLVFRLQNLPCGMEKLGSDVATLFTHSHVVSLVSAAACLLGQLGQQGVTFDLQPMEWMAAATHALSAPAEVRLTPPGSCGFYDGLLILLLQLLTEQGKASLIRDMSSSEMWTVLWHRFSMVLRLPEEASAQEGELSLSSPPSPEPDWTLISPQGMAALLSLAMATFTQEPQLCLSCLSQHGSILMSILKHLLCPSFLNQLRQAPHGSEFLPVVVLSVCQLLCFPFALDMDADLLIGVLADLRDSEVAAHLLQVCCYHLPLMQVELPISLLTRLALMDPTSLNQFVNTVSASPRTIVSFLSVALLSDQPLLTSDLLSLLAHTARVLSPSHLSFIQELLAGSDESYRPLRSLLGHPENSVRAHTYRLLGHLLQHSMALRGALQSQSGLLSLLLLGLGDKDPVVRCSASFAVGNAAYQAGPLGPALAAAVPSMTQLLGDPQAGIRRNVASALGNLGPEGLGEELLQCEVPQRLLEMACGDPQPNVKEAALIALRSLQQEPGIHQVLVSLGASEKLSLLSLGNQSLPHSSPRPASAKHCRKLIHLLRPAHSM

CCOCCn1cc(C(=O)Nc2ccc(-n3nc(-c4cccnc4)cc3C(F)(F)F)cn2)ccc1=O [BI 1935]
inactive: residual activity [1] 102% | residual activity [3] 84% | residual activity [4] 104% | residual activity [5] 94% | residual activity ([6]; Compound concentration 0.03 uM) 86% | residual activity ([6]; Compound concentration 0.1 uM) 57% | residual activity [7] 87% | residual activity [8] 100% | residual activity [9] 100% | residual activity [10] 90% | residual activity [11] 90% | residual activity [12] 100% | residual activity [13] 100% | residual activity [14] 100% | residual activity [15] 82% | residual activity [16] 89% | residual activity [17] 100% | residual activity [18] 100% | residual activity [19] 100% | residual activity [20] 84% | residual activity [21] 100% | residual activity [22] 80% | residual activity [23] 100% | residual activity [24] 100% | residual activity [25] 100% | residual activity [26] 84% | residual activity [27] 96% | residual activity [28] 97% | residual activity [29] 71% | residual activity [30] 83% | residual activity [31] 81% | residual activity [32] 100% | inhibition [33] 3.2% | inhibition [34] 25.3% | inhibition [35] -1.17% | inhibition [36] -5.52%
88.5% (not active): activity at 10 µM [2]
active: residual activity ([6]; Compound concentration 0.3 uM) 27% | residual activity ([6]; Compound concentration 1.0 uM) 13% | residual activity ([6]; Compound concentration 3.0 uM) 2% | residual activity ([6]; Compound concentration 10.0 uM) 4%

Source: ChEMBL document CHEMBL4507283, “Data for DCP probe BI-1935” (2021)
